# Measured values from ChEMBL document CHEMBL4177526, “Discovery and structure activity relationship of the first potent cryptosporidium FIKK kinase inhibitor” (Bioorg Med Chem, 2017).
# What was measured:
# [1] = biological target: Mitogen-activated protein kinase kinase kinase kinase 5 (Homo sapiens) (UniProt Q9Y4K4); assay: Inhibition of MAP4K5 (unknown origin) assessed as residual activity at 500 nM relative to control
# [2] = biological target: Mitogen-activated protein kinase 8 (Homo sapiens) (UniProt P45983); assay: Inhibition of human JNK1 (1 to 384 residues) assessed as residual activity at 500 nM in presence of 33P-ATP by filter binding assay relative to control
# [3] = biological target: AMPK alpha1/beta2/gamma1 (Homo sapiens) (UniProt O43741+P54619+Q13131); assay: Inhibition of human AMPKalpha1 (11 to 559 residues)/beta2 (1 to 272 residues)/gamma1 (1 to 331 residues) assessed as residual activity at 500 nM in presence of 33P-ATP by filter binding assay relative to control; type: protein-complex assay
# [4] = biological target: Mitogen-activated protein kinase kinase kinase kinase 3 (Homo sapiens) (UniProt Q8IVH8); assay: Inhibition of human MAP4K3 (1 to 873 residues) assessed as residual activity at 500 nM in presence of 33P-ATP by filter binding assay relative to control
# [5] = biological target: Serine/threonine-protein kinase WNK1 (Homo sapiens) (UniProt Q9H4A3); assay: Inhibition of human WNK1 (1 to 661 residues) assessed as residual activity at 500 nM in presence of 33P-ATP by filter binding assay relative to control
# Serine/threonine-protein kinase WNK1 (Homo sapiens), sequence (Q9H4A3 whole entry, looked up, the tested form may be a part): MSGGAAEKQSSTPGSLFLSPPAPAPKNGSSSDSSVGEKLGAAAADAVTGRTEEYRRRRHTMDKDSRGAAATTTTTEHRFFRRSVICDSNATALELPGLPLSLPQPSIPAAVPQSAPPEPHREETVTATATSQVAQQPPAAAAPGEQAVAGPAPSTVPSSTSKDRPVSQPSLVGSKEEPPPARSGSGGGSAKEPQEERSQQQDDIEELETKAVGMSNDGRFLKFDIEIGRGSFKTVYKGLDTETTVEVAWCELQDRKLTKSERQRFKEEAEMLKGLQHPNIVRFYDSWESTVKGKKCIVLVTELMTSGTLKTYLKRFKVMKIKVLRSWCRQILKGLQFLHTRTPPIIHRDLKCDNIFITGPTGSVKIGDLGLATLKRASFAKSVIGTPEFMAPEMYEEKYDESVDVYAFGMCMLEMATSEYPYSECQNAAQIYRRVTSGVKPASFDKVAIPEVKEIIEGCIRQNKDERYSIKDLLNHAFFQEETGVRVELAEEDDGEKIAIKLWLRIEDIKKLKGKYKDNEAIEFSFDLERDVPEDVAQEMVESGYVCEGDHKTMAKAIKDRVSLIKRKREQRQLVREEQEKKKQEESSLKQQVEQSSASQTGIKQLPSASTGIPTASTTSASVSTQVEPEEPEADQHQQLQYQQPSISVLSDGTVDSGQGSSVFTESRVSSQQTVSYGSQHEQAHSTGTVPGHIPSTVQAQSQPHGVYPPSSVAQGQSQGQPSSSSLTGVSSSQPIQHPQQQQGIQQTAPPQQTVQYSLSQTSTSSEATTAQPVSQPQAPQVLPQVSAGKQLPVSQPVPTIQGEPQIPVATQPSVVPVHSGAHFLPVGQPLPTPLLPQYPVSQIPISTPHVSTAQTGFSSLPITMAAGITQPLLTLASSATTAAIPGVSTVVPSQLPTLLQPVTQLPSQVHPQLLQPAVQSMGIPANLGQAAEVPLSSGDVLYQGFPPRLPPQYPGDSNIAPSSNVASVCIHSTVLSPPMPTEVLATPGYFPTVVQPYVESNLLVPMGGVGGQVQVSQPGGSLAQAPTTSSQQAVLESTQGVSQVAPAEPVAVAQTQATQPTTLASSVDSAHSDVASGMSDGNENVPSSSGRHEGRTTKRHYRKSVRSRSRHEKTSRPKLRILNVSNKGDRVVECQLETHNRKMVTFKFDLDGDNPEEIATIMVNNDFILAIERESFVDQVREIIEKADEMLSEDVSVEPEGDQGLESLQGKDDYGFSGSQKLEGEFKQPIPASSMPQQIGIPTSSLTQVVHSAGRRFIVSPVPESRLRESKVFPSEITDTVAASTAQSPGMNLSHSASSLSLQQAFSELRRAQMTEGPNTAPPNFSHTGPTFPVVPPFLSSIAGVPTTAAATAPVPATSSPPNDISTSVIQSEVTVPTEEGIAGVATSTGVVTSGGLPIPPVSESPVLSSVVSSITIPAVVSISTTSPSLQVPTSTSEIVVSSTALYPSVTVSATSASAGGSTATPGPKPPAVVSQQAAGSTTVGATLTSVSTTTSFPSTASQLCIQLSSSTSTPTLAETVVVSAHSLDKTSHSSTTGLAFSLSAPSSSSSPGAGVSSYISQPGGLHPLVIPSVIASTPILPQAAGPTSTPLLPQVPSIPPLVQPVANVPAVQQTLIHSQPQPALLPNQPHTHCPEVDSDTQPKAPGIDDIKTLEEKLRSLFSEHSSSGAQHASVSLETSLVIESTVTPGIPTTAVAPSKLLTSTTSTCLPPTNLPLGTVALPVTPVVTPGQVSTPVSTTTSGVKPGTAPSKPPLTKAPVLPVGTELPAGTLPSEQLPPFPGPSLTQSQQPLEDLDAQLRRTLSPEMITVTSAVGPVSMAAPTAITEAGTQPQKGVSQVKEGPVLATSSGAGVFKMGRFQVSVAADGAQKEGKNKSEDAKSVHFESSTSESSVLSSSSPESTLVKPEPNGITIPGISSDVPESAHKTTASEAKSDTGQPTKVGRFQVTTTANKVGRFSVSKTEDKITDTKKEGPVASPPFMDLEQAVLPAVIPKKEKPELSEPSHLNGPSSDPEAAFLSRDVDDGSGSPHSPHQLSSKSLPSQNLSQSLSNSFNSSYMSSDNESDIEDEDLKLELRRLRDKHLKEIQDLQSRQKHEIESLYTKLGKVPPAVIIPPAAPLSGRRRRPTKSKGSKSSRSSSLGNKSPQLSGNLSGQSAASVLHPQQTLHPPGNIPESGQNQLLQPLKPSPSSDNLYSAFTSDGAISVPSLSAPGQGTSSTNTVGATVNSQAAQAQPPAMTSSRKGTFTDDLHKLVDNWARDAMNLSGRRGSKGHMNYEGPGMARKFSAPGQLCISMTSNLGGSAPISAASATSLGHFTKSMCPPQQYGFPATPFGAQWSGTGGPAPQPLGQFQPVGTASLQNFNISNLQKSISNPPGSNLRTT
# [6] = biological target: Inhibitor of nuclear factor kappa-B kinase subunit beta (Homo sapiens) (UniProt O14920); assay: Inhibition of human IKKbeta (1 to 736 residues) assessed as residual activity at 500 nM in presence of 33P-ATP by filter binding assay relative to control
# [7] = biological target: SRSF protein kinase 1 (Homo sapiens) (UniProt Q96SB4); assay: Inhibition of human SRPK1 (2 to 654 residues) assessed as residual activity at 500 nM in presence of 33P-ATP by filter binding assay relative to control
# SRSF protein kinase 1 (Homo sapiens), sequence (Q96SB4 whole entry, the tested form may be a part): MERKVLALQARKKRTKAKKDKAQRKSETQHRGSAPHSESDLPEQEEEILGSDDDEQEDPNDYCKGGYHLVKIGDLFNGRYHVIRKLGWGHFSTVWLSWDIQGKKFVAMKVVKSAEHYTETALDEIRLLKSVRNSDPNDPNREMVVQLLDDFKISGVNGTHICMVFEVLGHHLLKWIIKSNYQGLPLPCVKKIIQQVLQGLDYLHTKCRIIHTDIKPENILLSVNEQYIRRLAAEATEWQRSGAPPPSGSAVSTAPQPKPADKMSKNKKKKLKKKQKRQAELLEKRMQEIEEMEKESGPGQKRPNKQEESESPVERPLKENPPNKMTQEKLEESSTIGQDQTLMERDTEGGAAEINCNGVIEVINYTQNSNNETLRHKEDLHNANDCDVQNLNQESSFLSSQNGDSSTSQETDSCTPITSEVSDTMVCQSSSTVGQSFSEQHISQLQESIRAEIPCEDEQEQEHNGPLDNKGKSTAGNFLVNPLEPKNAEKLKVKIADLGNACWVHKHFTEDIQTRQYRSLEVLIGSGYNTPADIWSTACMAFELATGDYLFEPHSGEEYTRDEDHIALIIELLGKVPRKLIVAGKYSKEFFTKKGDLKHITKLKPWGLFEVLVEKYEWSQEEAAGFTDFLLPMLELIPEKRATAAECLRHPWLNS
# [8] = biological target: Dual specificity tyrosine-phosphorylation-regulated kinase 3 (Homo sapiens) (UniProt O43781); assay: Inhibition of human DYRK3 (1 to 588 residues) assessed as residual activity at 500 nM in presence of 33P-ATP by filter binding assay relative to control
# [9] = biological target: Serine/threonine-protein kinase Nek6 (Homo sapiens) (UniProt Q9HC98); assay: Inhibition of human NEK6 (8 to 313 residues) assessed as residual activity at 500 nM in presence of 33P-ATP by filter binding assay relative to control
# Serine/threonine-protein kinase Nek6 (Homo sapiens), sequence (Q9HC98 whole entry, the tested form may be a part): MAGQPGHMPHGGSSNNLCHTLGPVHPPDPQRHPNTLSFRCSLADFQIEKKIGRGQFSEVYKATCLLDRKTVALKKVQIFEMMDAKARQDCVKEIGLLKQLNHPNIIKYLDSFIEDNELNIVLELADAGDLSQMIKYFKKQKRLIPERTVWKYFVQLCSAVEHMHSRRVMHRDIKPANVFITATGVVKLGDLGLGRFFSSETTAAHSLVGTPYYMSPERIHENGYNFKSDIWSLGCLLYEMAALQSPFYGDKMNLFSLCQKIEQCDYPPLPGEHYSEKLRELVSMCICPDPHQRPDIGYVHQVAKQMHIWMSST
# [10] = biological target: MAP kinase-activated protein kinase 2 (Homo sapiens) (UniProt P49137); assay: Inhibition of human MAPKAPK2 (46 to 400 residues) assessed as residual activity at 500 nM in presence of 33P-ATP by filter binding assay relative to control
# [11] = biological target: Serine/threonine-protein kinase PAK 4 (Homo sapiens) (UniProt O96013); assay: Inhibition of human PAK4 (2 to 591 residues) assessed as residual activity at 500 nM in presence of 33P-ATP by filter binding assay relative to control
# [12] = biological target: Serine/threonine-protein kinase ULK1 (Homo sapiens) (UniProt O75385); assay: Inhibition of human ULK1 (2 to 1050 residues) assessed as residual activity at 500 nM in presence of 33P-ATP by filter binding assay relative to control
# [13] = biological target: Ephrin type-A receptor 4 (Homo sapiens) (UniProt P54764); assay: Inhibition of human EPHA4 (570 to 986 residues) assessed as residual activity at 500 nM in presence of 33P-ATP by filter binding assay relative to control
# [14] = biological target: Platelet-derived growth factor receptor alpha (Homo sapiens) (UniProt P16234); assay: Inhibition of human PDGFRalpha (551 to […] residues) assessed as residual activity at 500 nM in presence of 33P-ATP by filter binding assay relative to control
# [15] = biological target: Serine/threonine-protein kinase 33 (Homo sapiens) (UniProt Q9BYT3); assay: Inhibition of human STK33 (1 to 514 residues) assessed as residual activity at 500 nM in presence of 33P-ATP by filter binding assay relative to control
# [16] = biological target: Insulin receptor-related protein (Homo sapiens) (UniProt P14616); assay: Inhibition of human IRR (944 to 1236 residues) assessed as residual activity at 500 nM in presence of 33P-ATP by filter binding assay relative to control
# [17] = biological target: Serine/threonine-protein kinase MARK1 (Homo sapiens) (UniProt Q9P0L2); assay: Inhibition of human MARK1 (2 to 795 residues) assessed as residual activity at 500 nM in presence of 33P-ATP by filter binding assay relative to control
# [18] = biological target: Mitogen-activated protein kinase 10 (Homo sapiens) (UniProt P53779); assay: Inhibition of human JNK3 (40 to 422 residues) assessed as residual activity at 500 nM in presence of 33P-ATP by filter binding assay relative to control
# Mitogen-activated protein kinase 10 (Homo sapiens), sequence (P53779 whole entry, the tested form may be a part): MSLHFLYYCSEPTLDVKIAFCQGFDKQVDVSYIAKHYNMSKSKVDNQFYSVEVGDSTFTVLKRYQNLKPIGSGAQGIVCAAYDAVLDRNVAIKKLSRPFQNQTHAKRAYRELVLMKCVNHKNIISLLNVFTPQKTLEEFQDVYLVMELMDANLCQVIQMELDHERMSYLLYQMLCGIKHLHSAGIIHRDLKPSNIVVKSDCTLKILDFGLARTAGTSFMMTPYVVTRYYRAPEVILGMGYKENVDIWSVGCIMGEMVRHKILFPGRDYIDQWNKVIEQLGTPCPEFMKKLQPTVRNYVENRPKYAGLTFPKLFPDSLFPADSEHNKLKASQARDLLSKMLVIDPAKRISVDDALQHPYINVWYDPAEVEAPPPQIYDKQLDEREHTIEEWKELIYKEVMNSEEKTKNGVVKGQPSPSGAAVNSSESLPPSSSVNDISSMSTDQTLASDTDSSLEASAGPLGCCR
# [19] = biological target: Ephrin type-B receptor 3 (Homo sapiens) (UniProt P54753); assay: Inhibition of human EPHB3 (565 to 984 residues) assessed as residual activity at 500 nM in presence of 33P-ATP by filter binding assay relative to control
# [20] = biological target: NUAK family SNF1-like kinase 1 (Homo sapiens) (UniProt O60285); assay: Inhibition of human NUAK1 (2 to 660 residues) assessed as residual activity at 500 nM in presence of 33P-ATP by filter binding assay relative to control
# [21] = biological target: Fibroblast growth factor receptor 1 (Homo sapiens) (UniProt P11362); assay: Inhibition of human FGFR1 (400 to 820 residues) assessed as residual activity at 500 nM in presence of 33P-ATP by filter binding assay relative to control
# [22] = biological target: Mitogen-activated protein kinase 9 (Homo sapiens) (UniProt P45984); assay: Inhibition of human JNK2 (1 to 424 residues) assessed as residual activity at 500 nM in presence of 33P-ATP by filter binding assay relative to control
# [23] = biological target: Mitogen-activated protein kinase 14 (Homo sapiens) (UniProt Q16539); assay: Inhibition of human p38alpha (1 to 360 residues) assessed as residual activity at 500 nM in presence of 33P-ATP by filter binding assay relative to control
# Mitogen-activated protein kinase 14 (Homo sapiens), sequence (Q16539 whole entry, the tested form may be a part): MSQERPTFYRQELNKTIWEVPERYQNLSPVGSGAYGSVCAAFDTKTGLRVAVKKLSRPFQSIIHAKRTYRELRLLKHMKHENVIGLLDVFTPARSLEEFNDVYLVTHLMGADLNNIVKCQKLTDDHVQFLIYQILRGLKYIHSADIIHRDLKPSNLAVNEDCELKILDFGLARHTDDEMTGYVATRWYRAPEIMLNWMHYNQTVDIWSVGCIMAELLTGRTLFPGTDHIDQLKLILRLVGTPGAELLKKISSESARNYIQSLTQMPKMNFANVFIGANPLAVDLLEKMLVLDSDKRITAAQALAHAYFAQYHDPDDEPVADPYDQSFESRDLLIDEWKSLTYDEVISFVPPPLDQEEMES
# [24] = biological target: Mitogen-activated protein kinase 14 (Homo sapiens) (UniProt Q16539); assay: Inhibition of human p38alpha (1 to 360 residues) at 500 nM in presence of 33P-ATP by filter binding assay relative to control
# [25] = biological target: Tyrosine-protein kinase Yes (Homo sapiens) (UniProt P07947); assay: Inhibition of human YES1 (1 to 543 residues) at 500 nM by filter binding assay relative to control
# [26] = Efflux ratio of permeability in human Caco2 cells; type: ADME, cell-based; conditions: Caco-2
# [27] = biological target: serine/threonine-protein kinase D1 (Homo sapiens) (UniProt Q15139); assay: Inhibition of human PKD1 (2 to 912 residues) assessed as residual activity at 500 nM in presence of 33P-ATP by filter binding assay relative to control
# Mitogen-activated protein kinase kinase kinase kinase 5 (Homo sapiens), sequence (Q9Y4K4 whole entry, looked up, the tested form may be a part): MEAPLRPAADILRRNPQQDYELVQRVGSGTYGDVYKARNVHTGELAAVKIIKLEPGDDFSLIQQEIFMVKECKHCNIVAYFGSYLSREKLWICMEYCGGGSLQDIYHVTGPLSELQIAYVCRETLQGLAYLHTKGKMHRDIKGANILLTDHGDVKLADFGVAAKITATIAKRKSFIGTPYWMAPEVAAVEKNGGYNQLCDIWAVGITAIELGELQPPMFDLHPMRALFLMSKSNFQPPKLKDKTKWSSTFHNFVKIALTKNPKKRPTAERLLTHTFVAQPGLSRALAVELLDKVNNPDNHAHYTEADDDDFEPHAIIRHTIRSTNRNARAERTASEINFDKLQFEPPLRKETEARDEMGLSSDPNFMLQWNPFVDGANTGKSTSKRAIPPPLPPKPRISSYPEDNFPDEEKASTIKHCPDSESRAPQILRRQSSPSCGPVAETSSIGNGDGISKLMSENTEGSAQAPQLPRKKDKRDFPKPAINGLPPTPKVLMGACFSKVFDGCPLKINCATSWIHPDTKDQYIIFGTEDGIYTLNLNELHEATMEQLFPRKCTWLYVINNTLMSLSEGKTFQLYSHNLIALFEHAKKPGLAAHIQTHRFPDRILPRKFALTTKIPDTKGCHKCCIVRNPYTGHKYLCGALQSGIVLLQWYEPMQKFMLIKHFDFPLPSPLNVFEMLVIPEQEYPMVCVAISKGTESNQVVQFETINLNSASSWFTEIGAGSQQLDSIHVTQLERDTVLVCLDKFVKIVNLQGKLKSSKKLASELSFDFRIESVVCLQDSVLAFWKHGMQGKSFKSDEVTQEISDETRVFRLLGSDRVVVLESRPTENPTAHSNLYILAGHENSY
smiles,measurement,setting,value
Cc1cccc(-c2nc(N)sc2-c2ccc3ncccc3n2)c1,Activity,[1],148%
same,Activity,[2],134%
same,Activity,[3],120%
same,Activity,[4],118%
same,Activity,[5],107%
same,Activity,[6],114%
same,Activity,[7],112%
same,Activity,[8],109%
same,Activity,[9],108%
same,Activity,[10],108%
same,Activity,[11],106%
same,Activity,[12],106%
same,Activity,[13],104%
same,Activity,[14],99%
same,Activity,[15],97%
same,Activity,[16],94%
same,Activity,[17],91%
same,Activity,[18],90%
same,Activity,[19],89%
same,Activity,[20],86%
same,Activity,[21],85%
same,Activity,[22],79%
same,Activity,[23],9%
same,inhibition,[24],91%
same,inhibition,[25],47%
same,efflux ratio,[26],< 1
same,Activity,[27],9%
